Patent US20040123342A1, “Monocotyledonous plant transformation” (Sugar Research & Development Corporation, priority 2000, published 2004)

Assays:
[1] = system: TS leaf whorl explants obtained from the Q187 and Q124 sugarcane cultivars; assay: Cross-testing of NAA and BA concentrations for shoot regeneration from thin section leaf whorl explants; format: cell-based; conditions: for optimal concentration in culture medium for regeneration: Q187 and Q124 TS leaf whorl explants
Procedure: Murashige & Skoog (MS) nutrient formulation supplemented with 30 g/L sucrose and 7.5 g/L Difco agar was used as the basal culture medium. Basal medium was, for certain phases of culture as will be described below, enriched with the cytokinin N^6-benzylaminopurine (BA) and the auxin a-napthaleneacetic acid NAA) together with anti-oxidants such as citric acid (CA), ascorbic acid (AA), or dithiothreitol (DTT). The pH of the medium was adjusted to 5.7 before autoclaving at 11kPa for 20 minutes at 120° C. TS explants were cultured in various orientations either in tissue culture dishes (90×14 mm) with 40 ml agar- solidified medium or in a 100 mL baby food jar containing 40 ml liquid medium, or on membrane rafts with flotation kept in a polypropylene container with 40 ml liquid medium. Liquid cultures were agitated continuously on a gyratory shaker at 120 rpm. All cultures were incubated at […] under 16 hr photoperiod provided by cool, white fluorescent tubes, Subculturing was carried out at least once a week, or more frequently if medium or TS turned brown due to phenolic exudation. Cross-testing of NAA and BA concentrations was also performed using TS leaf whorl explants obtained from the […] and […] sugarcane cultivars. […] However, higher concentrations of NAA (10-40 μM) promoted a slightly […] percentage of explants producing shoots. There was no clear trend in terms of the number of shoots produced with regard to either NAA or BA concentration, Generally, 4 μM BA was preferred at any given concentration of NAA, while NAA was optimal when present in culture medium at a concentration of 10 μM.

[2] = system: leaf TS explants (sugarcane cultivar Q165); assay: Effect of selection agent on shoot regeneration from bombarded leaf TS explants; format: cell-based; conditions: 100 mg/L in medium, transfer at 3 days after bombardment
Procedure: Sugarcane leaf sheath tissue taken from just above the meristem was taken from cultivar Q165 plants. Transverse thin section explants (2-3 mm) of leaf whorl were obtained from the harvested tissue. These are generally referred to as leaf thin sections.
A number of preliminary experiments were performed to detennije parametens which provided optimal regeneration from transformed tissue while providing optimal selection of transformants.
Similar results were obtained when bombarded TS explants were transferred to medium containing even low levels of selection agent.

Compound	optimal concentration in culture medium for regeneration [1] [µM]	regeneration efficiency, 4 μM vs 8 μM BA ([1]; cultivar Q124, any of the regeneration criteria examined)	regeneration efficiency, 4 μM vs 8 μM BA ([1]; cultivar Q187, TS leaf whorl explants)	percentage of explants producing shoots ([1]; higher concentrations of NAA (10-40 μM))	shoot regeneration [2]
c1ccc(CNc2ncnc3nc[nH]c23)cc1 [BA, N^6-benzylaminopurine]	4	no clear preference	4 μM BA was clearly more efficient than 8 μM BA		
O=C(O)Cc1cccc2ccccc12 [NAA, a-napthaleneacetic acid]	10			slightly hither percentage of explants producing shoots	
paromomycin sulphate					no shoot regeneration
